Measured values reported in patent US8143447B2, “Treatment of cancer” (BiPar Sciences, Inc., priority 2006, dated 2012).
“Also recorded” adds a separate entry of the source.

Legend:
adult tumor cell lines = conditions: a number of adult tumor cell lines; cited from earlier work
[1] = tested on: established adult tumor lines s.c. implanted in nude mice; conditions: administered p.o.; cited from earlier work
[2] = BA metabolite identification by LC/MS/MS from canine plasma; format: in vivo, dog; conditions: canine plasma after BA administration; equivalents measured using BSI-201 in the 1 μg/ml spike sample as reference standard
Protocol: (§1) Plasma samples were obtained from dog, rat and mouse studies, in which animals were administered 4-iodo-3-nitrobenzamide (BA). Plasma and tumor samples were prepared for HPLC injection by precipitating plasma (50 μl) with 3× volumes (150 μl) of acetonitrile. Tissue samples were prepared for HPLC injection by adding 1 μl of acetonitrile per mg of tissue, then homogenizing with an electric homogenizer. Following centrifugation, 150 μl of each supernatant was evaporated to dryness, reconstituted in 50 μl of 0.2% formic acid in water and analyzed by chromatography and mass spectrometry techniques (LC/MS/MS conditions). LC/MS/MS conditions are: HPLC (Shimadzu VP System); Mobile Phase: 0.2% formic acid in water (A) and 0.18% formic acid in methanol (B); Column: 1×50 mm Thermo BetaBasic C18 column; Injection volume: 25 μL; Gradient: 0-60% B in 30 minutes; Flow Rate: 100 μL/min; Mass Spectrometer: Applied Biosystems/MDS SCIEX Q-STAR; Interface: IonSpray split at 1/10; Parent Ion Scan: TOF Positive from 200-900 amu; Product Ion Scan: TOF Product Ion from 60-900 amu of most intense Ion in Parent Ion Scan; TOF calibration: Externally calibrated using Renin Substrate. Results of metabolite identification from dog and mouse plasma are depicted in Tables 1-3, as follows: […]

[3] = BA metabolite identification by LC/MS/MS from murine plasma; format: in vivo, mouse; conditions: murine plasma after BA administration; equivalents measured using BSI-201 in the 1 μg/ml spike sample as reference standard
Protocol: as §1

[4] = BA metabolite identification by LC/MS/MS from canine plasma and red blood cells; format: in vivo, dog; conditions: equivalents by 270 nm UV peak area of BSI-201 in the 5 μg/ml spike sample
Protocol: as §1

HTC116 cells = experiment: Cell-cycle analysis (DNA content, flow cytometry); format: cell-based; conditions: treated for 19 hours
Protocol: HCT116 and Hela cells were obtained from ATCC. For DNA content analysis, 2×10^5 cells were washed twice with PBS and fixed in 70% ethanol. Cells were treated with 100 units/mL RNase A for 20 minutes at 37° C., resuspended in cold PBS containing Alexa Fluor® 405 fluorescent stain (Invitrogen) according to the manufacturer's protocol. Cells were analyzed by flow cytometry. FIG. 1 illustrates (FACS dot plots and histograms) cell-cycle analysis in HTC116 cells treated with PARP-1 inhibitor (4-iodo-3-nitrobenzamide or “BA”) for 19 hours.

KB 3-1 cells = experiment: Colony-forming assay, KB 3-1 cells; format: cell-based, human; conditions: KB 3-1 (MDR1 normal) cells, 0-100 μM, 14 days
Text: (§2) KB-V1 is a vinblastine resistant clone of KB-3-1 human carcinoma cell line (Fojo, A. T., J Whang-Peng, M. M. Gottesman, and I. Pastan. 1985. Amplification of DNA sequences in human multidrugresistant KB carcinoma cells. Proc. Natl. Acad. Sci. USA 82:7661-7665., Shen, D.-W., C. Cardarelli, J lwang, M. Cornwell, N. Richert, S. Ishii, I. Pastan, and M. M. Gottesman. 1986. Multiple drug-resistant human KB carcinoma cells independently selected for high-level resistance to colchicine, Adriamycin, or vinblastine show changes in expression of specific proteins. J. Biol. Chem. 261:7762-7770). Cells were propagated in Eagle minimal essential medium with 10% fetal bovine serum.
(§3) Cells were trypsinized, counted, and diluted to a final concentration of 10^6 cells/ml. Colony-forming assays were performed by plating an appropriate number of cells into culture dishes in triplicates and treated with 0-100 μM of a compound. After 14 days, cells were fixed and stained with 1% crystal violet, and colonies were counted.

KB V-1 cells = experiment: Colony-forming assay, KB V-1 cells (MDR1 overexpressing); format: cell-based, human; conditions: KB V-1 (MDR1 overexpressing, vinblastine resistant) cells, 0-100 μM, 14 days
Text: as §2, §3

Approximate [2] [ng/mL] | Approximate [3] [ng/mL] | Approximate μg/ml Plasma ([4]; canine plasma) [µg/mL] | Approximate μg/ml RBC ([4]; canine red blood cells) [µg/mL] | Structure (SMILES) | IC50 of tumor cell growth inhibition (adult tumor cell lines) | growth of established adult tumor lines [1] | toxicities [1] | S phase cell cycle (HTC116 cells; compared to control) | number of cells in the G1 phase (HTC116 cells; control 18.6%) [%] | number of cell colonies / cell death (KB 3-1 cells) | number of cell colonies / cell death (KB V-1 cells)
 |  |  |  | Nc1ccccc1NC(=O)c1ccc(CNC(=O)OCc2cccnc2)cc1 [MS-27-275] | submicromolar range | inhibited the growth | minimal toxicities |  |  |  | 
~12 | ~56 |  |  | NC(=O)c1ccc(I)c(O)c1 [M4 (263 m/z)] |  |  |  |  |  |  | 
~1.9 | ~3.7 | ~2.1 | ~1.6 | NC(=O)c1ccc(I)c([N+](=O)[O-])c1 [BA, 4-iodo-3-nitrobenzamide] |  |  |  | decrease | 48.6 | dose-dependent cell death; also recorded: reduces the number of cell colonies in a dose-dependant manner | dose-dependent cell death; also recorded: reduces the number of cell colonies in a dose-dependant manner
